# From the supplement of paper PMC13380429
# Assays:
# Conditions in all cases: 72 h
# U2OS [1] = assay: cell viability relative to DMSO; higher = less toxic
# Caco-2 [2] = assay: as above
# HepG2 [3] = assay: as above
# Calu-3 [4] = assay: as above
# Vero E6 [5] = assay: as above
# U2OS [6] = assay: drug sensitivity score (DSS) for viability; higher = more toxic; extreme values may be limits of the assay
# Caco-2 [7] = assay: as above
# HepG2 [8] = assay: as above
# Calu-3 [9] = assay: as above
# Vero E6 [10] = assay: as above
# U2OS [11] = assay: relative viability EC50 (midpoint between 100% and the lowest measured viability); higher = less toxic
# Caco-2 [12] = assay: as above
# HepG2 [13] = assay: as above
# Calu-3 [14] = assay: as above
# Vero E6 [15] = assay: as above
Structure (SMILES),cell viability (U2OS [1]; 1 nM) [%],cell viability (U2OS [1]; 10 nM) [%],cell viability (U2OS [1]; 100 nM) [%],cell viability (U2OS [1]; 1000 nM) [%],cell viability (U2OS [1]; 10000 nM) [%],cell viability (Caco-2 [2]; 1 nM) [%],cell viability (Caco-2 [2]; 10 nM) [%],cell viability (Caco-2 [2]; 100 nM) [%],cell viability (Caco-2 [2]; 1000 nM) [%],cell viability (Caco-2 [2]; 10000 nM) [%],cell viability (HepG2 [3]; 1 nM) [%],cell viability (HepG2 [3]; 10 nM) [%],cell viability (HepG2 [3]; 100 nM) [%],cell viability (HepG2 [3]; 1000 nM) [%],cell viability (HepG2 [3]; 10000 nM) [%],cell viability (Calu-3 [4]; 1 nM) [%],cell viability (Calu-3 [4]; 10 nM) [%],cell viability (Calu-3 [4]; 100 nM) [%],cell viability (Calu-3 [4]; 1000 nM) [%],cell viability (Calu-3 [4]; 10000 nM) [%],cell viability (Vero E6 [5]; 1 nM) [%],cell viability (Vero E6 [5]; 10 nM) [%],cell viability (Vero E6 [5]; 100 nM) [%],cell viability (Vero E6 [5]; 1000 nM) [%],cell viability (Vero E6 [5]; 10000 nM) [%],drug sensitivity score (U2OS [6]),drug sensitivity score (Caco-2 [7]),drug sensitivity score (HepG2 [8]),drug sensitivity score (Calu-3 [9]),drug sensitivity score (Vero E6 [10]),relative viability EC50 (U2OS [11]) [µM],relative viability EC50 (Caco-2 [12]) [µM],relative viability EC50 (HepG2 [13]) [µM],relative viability EC50 (Calu-3 [14]) [µM],relative viability EC50 (Vero E6 [15]) [µM]
"CCOC(=O)c1ncn2c1[C@@H]1CCCN1C(=O)c1cc(OC)ccc1-2 [L-655,708]",100,98.9,97.5,99.2,104,97.8,95.8,118,95.1,107,90.7,100,104,98.7,106,101,88,96.3,96.7,105,94.6,95,92.3,97.9,111,0,0,0,0,0,> 10,> 10,> 10,> 10,> 10
NC(=O)Cc1cccc(C(=O)c2ccccc2)c1N [nepafenac],99.5,102,94.5,98.8,93.5,96.6,94.9,90.7,102,90.7,116,94.8,100,99.9,105,101,97.9,95.6,95.3,97.9,106,104,106,99.3,102,0,0,0,0,0,> 10,> 10,> 10,> 10,> 10
CCN1C[C@]2(COC(=O)c3ccccc3N3C(=O)C[C@H](C)C3=O)CC[C@H](OC)[C@@]34[C@@H]5C[C@H]6[C@H](OC)[C@@H]5[C@](O)(C[C@@H]6OC)[C@](O)([C@@H](OC)[C@H]23)[C@@H]14 [methyllycaconitine],97.1,94.5,95.8,96.3,94.7,108,96.1,103,97,98.1,96.3,102,99.4,95.2,101,97.3,102,90.3,91.1,98.6,104,102,101,102,97.8,0,0,0,0,0,> 10,> 10,> 10,> 10,> 10
